Data from ChEMBL document CHEMBL1201862, “PubChem BioAssay data set” (2004).
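Cells were grown in 96-well plates and exposed to each compound for 48 hours at five concentrations; endpoints were interpolated linearly between bracketing concentrations, or set to the highest concentration if not reached. GI50 is the concentration that inhibits growth by half.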 Active and inactive are the calls of the source. No stated cut-off is given here; in the data, active = GI50 up to about 1.1 µM and inactive = higher.

Legend:
Experiment in all cases: DTP human tumour cell line panel, 48 h
CAKI-1 = tested on: CAKI-1
U-251 = tested on: U-251
MDA-MB-231 = tested on: MDA-MB-231
M14 = tested on: M14
NCI/ADR-RES = tested on: NCI/ADR-RES
MCF7 = tested on: MCF7
IGROV-1 = tested on: IGROV-1
OVCAR-5 = tested on: OVCAR-5
NCI-H226 = tested on: NCI-H226
ACHN = tested on: ACHN
SK-MEL-28 = tested on: SK-MEL-28
PC-3 = tested on: PC-3
HOP-62 = tested on: HOP-62
OVCAR-8 = tested on: OVCAR-8
MOLT-4 = tested on: MOLT-4
MDA-N = tested on: MDA-N
DU-145 = tested on: DU-145
SR = tested on: SR
HCC 2998 = tested on: HCC 2998

SMILES: O=C(O)c1cccc(S(=O)(=O)NCCO)c1
- GI50 (CAKI-1): > 100 µM (inactive)
- GI50 (U-251): > 100 µM (inactive)
- GI50 (MDA-MB-231): > 100 µM (inactive)
- GI50 (M14): > 100 µM (inactive)
- GI50 (NCI/ADR-RES): > 100 µM (inactive)
- GI50 (MCF7): > 100 µM (inactive)
- GI50 (IGROV-1): > 100 µM (inactive)
- GI50 (OVCAR-5): > 100 µM (inactive)
- GI50 (NCI-H226): > 100 µM (inactive)
- GI50 (ACHN): > 100 µM (inactive)
- GI50 (SK-MEL-28): > 100 µM (inactive)
- GI50 (PC-3): > 100 µM (inactive)
- GI50 (HOP-62): > 100 µM (inactive)
- GI50 (OVCAR-8): > 100 µM (inactive)
- GI50 (MOLT-4): > 100 µM (inactive)
- GI50 (MDA-N): > 100 µM (inactive)
- GI50 (DU-145): > 100 µM (inactive)
- GI50 (SR): > 100 µM (inactive)

SMILES: CCCCN(c1ccccc1)c1ncnc2c1cnn2C
- GI50 (CAKI-1): 45.1 µM (inactive)
- GI50 (U-251): 44.2 µM (inactive)
- GI50 (MDA-MB-231): 26.6 µM (inactive)
- GI50 (M14): 48.2 µM (inactive)
- GI50 (HCC 2998): 36.8 µM (inactive)
- GI50 (NCI/ADR-RES): 22.5 µM (inactive)
- GI50 (MCF7): 32.4 µM (inactive)
- GI50 (IGROV-1): 34.7 µM (inactive)
- GI50 (OVCAR-5): 47.4 µM (inactive)
- GI50 (NCI-H226): > 100 µM (inactive)
- GI50 (ACHN): 37.7 µM (inactive)
- GI50 (SK-MEL-28): 38.6 µM (inactive)
- GI50 (PC-3): 27.5 µM (inactive)
- GI50 (HOP-62): 38.8 µM (inactive)
- GI50 (OVCAR-8): 41.2 µM (inactive)
- GI50 (MOLT-4): 8.69 µM (inactive)
- GI50 (MDA-N): 42 µM (inactive)
- GI50 (DU-145): 53.6 µM (inactive)

SMILES: COC1=C2C[C@@H](C)C[C@@H](OC)[C@@H](O)[C@H](C)/C=C(\C)[C@@H](OC(N)=O)[C@H](OC)/C=C\C=C(/C)C(=O)NC(=CC1=O)C2=O
- GI50 (CAKI-1): 1.77 µM (inactive)
- GI50 (U-251): 2.93 µM (inactive)
- GI50 (MDA-MB-231): 0.0421 µM (active)
- GI50 (M14): 0.106 µM (active)
- GI50 (NCI/ADR-RES): 10.1 µM (inactive)
- GI50 (MCF7): 0.0198 µM (active)
- GI50 (IGROV-1): 0.29 µM (active)
- GI50 (OVCAR-5): 6.87 µM (inactive)
- GI50 (NCI-H226): 3.56 µM (inactive)
- GI50 (SK-MEL-28): 0.113 µM (active)
- GI50 (PC-3): 0.122 µM (active)
- GI50 (HOP-62): 3.38 µM (inactive)
- GI50 (OVCAR-8): 0.0614 µM (active)
- GI50 (MOLT-4): 0.0199 µM (active)
- GI50 (MDA-N): 0.0216 µM (active)
- GI50 (DU-145): 0.106 µM (active)

SMILES: CC(C)(C)NC(NC(C)(C)C)=C(/C=C(/Cl)[N+](=O)[O-])[N+](=O)[O-]
- GI50 (CAKI-1): > 100 µM (inactive)
- GI50 (U-251): > 100 µM (inactive)
- GI50 (MDA-MB-231): > 100 µM (inactive)
- GI50 (M14): 27.7 µM (inactive)
- GI50 (HCC 2998): 62.1 µM (inactive)
- GI50 (MCF7): 4.46 µM (inactive)
- GI50 (IGROV-1): 51.8 µM (inactive)
- GI50 (OVCAR-5): > 100 µM (inactive)
- GI50 (NCI-H226): > 100 µM (inactive)
- GI50 (ACHN): 65.3 µM (inactive)
- GI50 (SK-MEL-28): > 100 µM (inactive)
- GI50 (PC-3): 45.6 µM (inactive)
- GI50 (HOP-62): > 100 µM (inactive)
- GI50 (OVCAR-8): 38.7 µM (inactive)
- GI50 (MOLT-4): 48.3 µM (inactive)
- GI50 (MDA-N): 26.2 µM (inactive)
- GI50 (DU-145): > 100 µM (inactive)
- GI50 (SR): 32.6 µM (inactive)

SMILES: CC(C)C(/C=C/c1ccc(Cl)cc1)=N\NC(=S)NN
- GI50 (CAKI-1): 22.4 µM (inactive)
- GI50 (U-251): 6.61 µM (inactive)
- GI50 (MDA-MB-231): > 100 µM (inactive)
- GI50 (M14): 18.9 µM (inactive)
- GI50 (HCC 2998): 44.2 µM (inactive)
- GI50 (NCI/ADR-RES): 17.7 µM (inactive)
- GI50 (MCF7): 15.6 µM (inactive)
- GI50 (IGROV-1): 20.2 µM (inactive)
- GI50 (OVCAR-5): 30.9 µM (inactive)
- GI50 (NCI-H226): 10.4 µM (inactive)
- GI50 (ACHN): 10.6 µM (inactive)
- GI50 (SK-MEL-28): 39.7 µM (inactive)
- GI50 (PC-3): 36.5 µM (inactive)
- GI50 (HOP-62): 31.6 µM (inactive)
- GI50 (OVCAR-8): 12 µM (inactive)
- GI50 (MOLT-4): 4.15 µM (inactive)
- GI50 (MDA-N): 26.2 µM (inactive)
- GI50 (DU-145): 27.5 µM (inactive)

SMILES: COc1ccc(C2C3=C(Nc4ncnn42)c2ccccc2OC3c2ccccc2)cc1 (stereo unspecified)
- GI50 (CAKI-1): 26.5 µM (inactive)
- GI50 (U-251): 42.3 µM (inactive)
- GI50 (MDA-MB-231): 49.1 µM (inactive)
- GI50 (M14): 61.8 µM (inactive)
- GI50 (NCI/ADR-RES): 47.8 µM (inactive)
- GI50 (MCF7): 13.5 µM (inactive)
- GI50 (IGROV-1): 27.1 µM (inactive)
- GI50 (OVCAR-5): 89.1 µM (inactive)
- GI50 (ACHN): 18.5 µM (inactive)
- GI50 (PC-3): 27.4 µM (inactive)
- GI50 (HOP-62): > 100 µM (inactive)
- GI50 (OVCAR-8): 80.2 µM (inactive)
- GI50 (MOLT-4): 6.27 µM (inactive)
- GI50 (MDA-N): 11 µM (inactive)
- GI50 (DU-145): > 100 µM (inactive)
- GI50 (SR): 8.47 µM (inactive)

SMILES: Cc1ccccc1NC(=O)Cc1csc(N/N=C2\C(=O)Nc3ccccc32)n1
- GI50 (CAKI-1): 19.9 µM (inactive)
- GI50 (U-251): 1 µM (active)
- GI50 (MDA-MB-231): 29.7 µM (inactive)
- GI50 (M14): 50 µM (inactive)
- GI50 (NCI/ADR-RES): 29.7 µM (inactive)
- GI50 (MCF7): 50 µM (inactive)
- GI50 (IGROV-1): 33.9 µM (inactive)
- GI50 (OVCAR-5): 41.7 µM (inactive)
- GI50 (NCI-H226): 41.8 µM (inactive)
- GI50 (ACHN): 36.8 µM (inactive)
- GI50 (SK-MEL-28): 1 µM (active)
- GI50 (PC-3): 18.6 µM (inactive)
- GI50 (OVCAR-8): 16.6 µM (inactive)
- GI50 (MOLT-4): 29.7 µM (inactive)
- GI50 (MDA-N): 75.2 µM (inactive)
- GI50 (DU-145): 75 µM (inactive)

SMILES: O=C(CN1CCCCC1)c1ccc2[nH]c(=O)oc2c1
- GI50 (CAKI-1): > 100 µM (inactive)
- GI50 (U-251): > 100 µM (inactive)
- GI50 (MDA-MB-231): > 100 µM (inactive)
- GI50 (M14): > 100 µM (inactive)
- GI50 (NCI/ADR-RES): > 100 µM (inactive)
- GI50 (MCF7): > 100 µM (inactive)
- GI50 (IGROV-1): > 100 µM (inactive)
- GI50 (OVCAR-5): > 100 µM (inactive)
- GI50 (NCI-H226): > 100 µM (inactive)
- GI50 (ACHN): > 100 µM (inactive)
- GI50 (SK-MEL-28): > 100 µM (inactive)
- GI50 (PC-3): > 100 µM (inactive)
- GI50 (HOP-62): > 100 µM (inactive)
- GI50 (OVCAR-8): > 100 µM (inactive)
- GI50 (MOLT-4): > 100 µM (inactive)
- GI50 (MDA-N): > 100 µM (inactive)
- GI50 (DU-145): > 100 µM (inactive)
- GI50 (SR): > 100 µM (inactive)

SMILES: CCN1CC2(C)CCC(OC)C34C5CC6CCC(O)(C5C(=O)O6)C(C(O)C23)C14 (stereo unspecified)
- GI50 (CAKI-1): > 100 µM (inactive)
- GI50 (U-251): > 100 µM (inactive)
- GI50 (MDA-MB-231): > 100 µM (inactive)
- GI50 (M14): > 100 µM (inactive)
- GI50 (HCC 2998): > 10 µM (inactive)
- GI50 (NCI/ADR-RES): > 100 µM (inactive)
- GI50 (MCF7): > 100 µM (inactive)
- GI50 (IGROV-1): > 100 µM (inactive)
- GI50 (OVCAR-5): > 100 µM (inactive)
- GI50 (ACHN): > 100 µM (inactive)
- GI50 (SK-MEL-28): > 100 µM (inactive)
- GI50 (PC-3): > 100 µM (inactive)
- GI50 (HOP-62): > 100 µM (inactive)
- GI50 (OVCAR-8): > 100 µM (inactive)
- GI50 (MOLT-4): > 100 µM (inactive)
- GI50 (MDA-N): > 100 µM (inactive)
- GI50 (DU-145): > 100 µM (inactive)

SMILES: Clc1ccc(Cc2nc3cc(CCN4CCN(c5ccccc5)CC4)ccc3[nH]2)cc1
- GI50 (CAKI-1): 14.4 µM (inactive)
- GI50 (U-251): 13 µM (inactive)
- GI50 (MDA-MB-231): 13 µM (inactive)
- GI50 (M14): 5.73 µM (inactive)
- GI50 (NCI/ADR-RES): 19.1 µM (inactive)
- GI50 (MCF7): 16 µM (inactive)
- GI50 (IGROV-1): 27.5 µM (inactive)
- GI50 (OVCAR-5): 26.1 µM (inactive)
- GI50 (NCI-H226): 22.5 µM (inactive)
- GI50 (ACHN): 19.5 µM (inactive)
- GI50 (SK-MEL-28): 19.1 µM (inactive)
- GI50 (PC-3): 18.6 µM (inactive)
- GI50 (HOP-62): 15.4 µM (inactive)
- GI50 (OVCAR-8): 17 µM (inactive)
- GI50 (MOLT-4): 6.62 µM (inactive)
- GI50 (MDA-N): 15.3 µM (inactive)
- GI50 (DU-145): 17.4 µM (inactive)
- GI50 (SR): 8.02 µM (inactive)

SMILES: CNc1ccc(-c2nc3cc(C)ccc3o2)cc1
- GI50 (CAKI-1): > 100 µM (inactive)
- GI50 (U-251): 58.6 µM (inactive)
- GI50 (MDA-MB-231): 40.1 µM (inactive)
- GI50 (M14): > 100 µM (inactive)
- GI50 (HCC 2998): > 100 µM (inactive)
- GI50 (NCI/ADR-RES): 64.6 µM (inactive)
- GI50 (MCF7): > 100 µM (inactive)
- GI50 (IGROV-1): > 100 µM (inactive)
- GI50 (OVCAR-5): > 100 µM (inactive)
- GI50 (NCI-H226): 45.3 µM (inactive)
- GI50 (ACHN): 57.3 µM (inactive)
- GI50 (SK-MEL-28): > 100 µM (inactive)
- GI50 (PC-3): > 100 µM (inactive)
- GI50 (HOP-62): 19.9 µM (inactive)
- GI50 (OVCAR-8): 58.1 µM (inactive)
- GI50 (MOLT-4): 34.9 µM (inactive)
- GI50 (MDA-N): > 100 µM (inactive)
- GI50 (DU-145): > 100 µM (inactive)
